Results published in ChEMBL document CHEMBL1150345 (J Med Chem, 2008).

Target: T1, Histamine H4 receptor (Homo sapiens, UniProt Q9H3N8)
Experiment: biochemical
Type: cell-based, SK-N-MC
Conditions: not given

T1 sequence (Q9H3N8 whole entry): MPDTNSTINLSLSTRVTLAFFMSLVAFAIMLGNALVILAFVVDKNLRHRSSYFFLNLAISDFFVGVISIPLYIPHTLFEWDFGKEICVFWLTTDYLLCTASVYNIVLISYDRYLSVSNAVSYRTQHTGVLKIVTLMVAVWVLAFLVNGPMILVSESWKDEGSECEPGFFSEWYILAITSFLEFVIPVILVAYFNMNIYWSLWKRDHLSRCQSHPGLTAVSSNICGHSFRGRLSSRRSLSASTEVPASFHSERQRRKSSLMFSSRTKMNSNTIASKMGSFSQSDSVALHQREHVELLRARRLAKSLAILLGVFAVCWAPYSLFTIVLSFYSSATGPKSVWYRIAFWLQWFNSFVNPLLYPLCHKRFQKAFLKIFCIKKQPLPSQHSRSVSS

SMILES	Ki
CC(/C=C(\C)NNC(=N)N)=N/NC(=N)N	897 nM
CCOC(=O)c1ccc(NC2=CC(=O)/C(=N\NC(=N)N)c3ccccc32)cc1	219 nM
C[C@@H](N)Cc1c[nH]cn1	184 nM
N=C(N)SCCc1cnc[nH]1 [IMETIT]	3.6 nM
NC(=NCc1ccc(Cl)cc1)SCCCc1cnc[nH]1 [CLOBENPROPIT]	5 nM
NC(=NCCc1ccc(I)cc1)SCCCc1cnc[nH]1 [IODOPHENPROPIT]	7.8 nM
Cc1cc(C)nc(N=C(N)NCCc2cnc[nH]2)n1	85 nM
N=C(N)NCc1cccc(CNC(=N)N)n1	1240 nM
CN(C)CCCSC(=N)N	90 nM
C/N=C(\N)N/N=C(/C)c1ccc2sc3ccc(/C(C)=N\N/C(N)=N/C)cc3c2c1	1480 nM

Target: T1, Histamine H4 receptor
Experiment: Displacement of [3H]histamine from human histamine H4 receptor expressed in […] cells at 5 uM
Type: cell-based
Conditions: SK-N-MC

SMILES	Activity
C[n+]1cccc(NC(=O)c2ccc(NC(=O)c3ccc(C(=O)Nc4ccc(NC(=N)N)cc4)cc3)cc2)c1	26%
N=C(N)NC(=N)Nc1ccc(Cl)cc1C(=O)c1ccccc1	37.1%
CN1CCN(C(=O)c2cccc(Nc3nc(-c4ccccc4)c4cc(Br)ccc4n3)c2)CC1	23%
CC(/C=C(\C)NNC(=N)N)=N/NC(=N)N	64.3%
CC(/C=C/NNC(=N)N)=N/NC(=N)N	33.9%
CCOC(=O)c1ccc(NC2=CC(=O)/C(=N\NC(=N)N)c3ccccc32)cc1	92.6%
CN(C)CCCNC(=O)/C(=C\c1cn(-c2ccccc2)nc1-c1ccc(Br)cc1)NC(=O)c1ccccc1	29.4%
Cc1cc(C)nc(N/C(N)=N/CCc2c[nH]cn2)n1	95.8%
COc1cccc(C2NCCc3[nH]cnc32)c1 (stereo unspecified)	20.9%
N=C(N)NCc1cccc(CNC(=N)N)n1	67.8%
N=C(N)NN/C(=C(\O)c1ccccc1)c1ccccc1	34.7%
N=C(N)NN=C1C=CC(=NNC(=N)N)C=C1	44%
CN(CCN(C)c1ccc(N)cc1)c1ccc(N)cc1	34.3%
NCCNC(=O)c1cc2ccccc2[nH]1	46.9%
CN1CCN(c2ccccc2NC(=S)NC(=O)c2cc3ccccc3o2)CC1	50.3%
C/N=C(\N)N/N=C(/C)c1ccc2sc3ccc(/C(C)=N\N/C(N)=N/C)cc3c2c1	72%
